Measurements from US11660290B2, “Affinity based drug release formulations” (McMaster University, priority 2016, dated 2023).

Columns and labels:
[1] = molecular target: Alexa-Fluor 488 streptavidin (Streptomyces avidinii, UniProt P22629); test: Release study of fluorescent streptavidin from agarose-desthiobiotin hydrogels; conditions: for release of fluorescent streptavidin from the hydrogel (rate, in words): 1 wt % Ag-D gel, insoluble biotin derivative, PBS
Description: Ag-D was dissolved in 0.1M PBS at 2 wt %, Alexa-Fluor 488 streptavidin was subsequently added and the mixture was incubated at 37° C. for 2 h. […] Gels were cured at 4 C for 20 min to 1 hr and initial fluorescent readings of the gel were taken. 200 uL of PBS was subsequently dispensed overtop of the gels and collected and replenished at specific time intervals. The loss of fluorescence as well as the released fluorescent streptavidin was measured at specific time points (FIGS. 5B and 6).

[2] = Transparency of agarose hydrogels with solid suspension of oleylbiotin; type: physicochemical; conditions: solid suspension in agarose hydrogel
HUVEC = tested on: HUVEC
Description: Additionally, toxicity studies were performed using the MTS assay using HUVEC, assessing the toxicity of the components of the drug delivery system as well as the complete drug delivery system (FIGS. 11 A and B).

Alexa-Fluor 488 streptavidin, sequence (P22629 25-183): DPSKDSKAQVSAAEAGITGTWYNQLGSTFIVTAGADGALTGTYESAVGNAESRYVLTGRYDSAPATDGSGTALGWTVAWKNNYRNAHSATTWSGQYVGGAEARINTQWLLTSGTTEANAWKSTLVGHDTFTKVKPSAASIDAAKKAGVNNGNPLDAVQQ

Compound | release of fluorescent streptavidin from the hydrogel (rate, in words) [1] | time over which oleylbiotin concentration modulates the release of streptavidin ([1]; various oleylbiotin concentrations, system of Example 1) | duration of streptavidin release (extrapolation of preliminary experiments) ([1]; wild-type streptavidin) | concentration that did not decrease the transparency of agarose gels [2] | toxicity of single components of the drug delivery system (HUVEC)
Tert-butyl biotin | slower release |  |  |  | 
O=C(O)CCCC[C@@H]1SC[C@@H]2NC(=O)N[C@@H]21 [biotin, reference compound] | most rapid release |  |  |  | 
oleyl-biotin | slowest and longest release | at least 150 days | > 100 days | ≤ 80 µM | None of the components display any inherent toxicity except for the solid suspension of oleylbiotin
